Measured values taken from US9897592B2, “Methods for identifying arthropod repellents and attractants, and compounds and compositions identified by such methods” (The Regents of the University of California, priority 2013, dated 2018).
Counter-ions that a name gives are not always drawn.

Tested on: cpA neuron
Test: Single-sensillum recording: activation of cpA neuron by odorants
Format: cell-based, Aedes aegypti
Settings: for Activation (spikes s^−1): A. aegypti cpA, 0.5-s pulses, odorants 10^−2 in paraffin oil or water, solvent response subtracted; for Activation (spikes s−1): cpA neuron, 20 compounds from the top 200 SVM ligand predictions, negative values = inhibition, N = 4
Protocol: FIG. 3b depicts representative traces and mean responses of the A. aegypti cpA neuron to 0.5-s pulses of 138 predicted compounds screened using single-sensillum recordings, in which odorants were diluted to 10^−2 in paraffin oil or water, and responses to solvent have been subtracted, n=2-6, and error bars are s.d.
FIG. 5f is a bar graph illustrating the mean responses of the A. aegypti cpA neuron to 0.5-s pulses of 22 newly predicted compounds screened as in FIG. 3b, where salmon bars correspond to odorants found in human odor, odorants were diluted to 10^−2 in paraffin oil or water, and responses to solvent have been subtracted, and n=2-5.
Adult female A. aegypti (Linnaeus 1762) (Rockefeller strain) A. gambiae sensu stricto Giles 1902 (G3 strain), or C. quinquefasciatus Say 1823 were tested 3-12 days post-emergence with single-sensillum extracellular recordings. Chemicals were obtained from Sigma-Aldrich at the highest purity (typically >99%) and were dissolved in paraffin oil or water. […] Response to clean beads was subtracted from the results reported. Only sensilla with cpA activity of <20 spikes s^−1 to negative control were considered for analysis.
CpA-off and sham treated mosquitoes were pre-treated for 3 min in an upended 1 L glass dish in which 100 μl of fresh butyryl chloride (1%) or paraffin oil was allowed to vaporize for 10-20 min. The odor delivery system for different screens is shown in FIG. 7b; solvent responses during the same recording session were subtracted. Inhibition screen was tested. For the ultra-prolonged activator the 3-s stimulus was delivered from a 10 ml disposable pipette using a CS-55 stimulus controller (Syntech), CO2 was delivered, and responses to subsequent odor stimuli were calculated by subtracting baseline activity 1 s prior to each stimulus. When responses to repeated pulses of cyclopentanone and CO2 were compared, baseline activity between seconds 5 and 6 following each stimulus was subtracted. Spike counting was done manually or with Igor Pro6.2 (Wavemetrics) with the Neuromatic v2.00 macro (by Jason Rothman), and peak-to-peak spike amplitudes for FIG. 8 were analysed in Clampfit 10.3 (Molecular Devices).
From the large list of cpA receptor ligands predicted from Example 3 above, 138 compounds were selected based on desirable criteria for application such as smell, presence in natural sources, human safety profile, and cost to procure. These compounds were tested individually using single-sensillum electrophysiology on the cp sensillum of female A. aegypti, according to the procedure described in Example 1 above.

Structure (SMILES) | Activation (spikes s^−1) | Activation (spikes s−1)
CC(C)CC#N [3-methylbutanenitrile] | 75.8 spikes s^−1 | 
CC1=CC(O)CCC1 (stereo not shown) [3-methylcyclohex-2-en-1-ol] | 23.0 spikes s^−1 | 
CC1=CC(=O)CC1 [3-methylcyclopent-2-en-1-one] | 31.0 spikes s^−1 | 
CC1CCC(=O)C1=O (stereo not shown) [3-methylcyclopentane-1,2-dione] | 3.5 spikes s^−1 | 
CCC(C)CC(=O)O (stereo not shown) [3-methylpentanoic acid] | 3.7 spikes s^−1 | 
Cc1cccc(O)c1 [3-methylphenol] | 44.0 spikes s^−1 | 
C=CCSC [3-methylsulfanylprop-1-ene] |  | 52.8 spikes s−1
Cc1ccsc1 [3-methylthiophene] |  | 33.8 spikes s−1
OCCCc1ccccc1 [3-phenylpropan-1-ol] | −3.0 spikes s^−1 | 
CCc1ccc(C=O)cc1 [4-ethylbenzaldehyde] | 2.5 spikes s^−1 | 
CC1=C(O)C(=O)OC1C (stereo not shown) [4-hydroxy-2,3-dimethyl-2H-furan-5-one] | 9.0 spikes s^−1 | 
CC1(O)CCOC(=O)C1 (stereo not shown) [4-hydroxy-4-methyloxan-2-one] | −1.0 spikes s^−1 | 
CC(=O)CC(C)(C)O [4-hydroxy-4-methylpentan-2-one] | 2.0 spikes s^−1 | 
Cc1cscn1 [4-methyl-1,3-thiazole] | 111.8 spikes s^−1 | 
CC(C)=CC1CC(C)CCO1 (stereo not shown) [4-methyl-2-(2-methylprop-1-enyl)oxane] | 1.5 spikes s^−1 | 
CCCC1OCC(C)O1 (stereo not shown) [4-methyl-2-propyl-1,3-dioxolane] | 13.0 spikes s^−1 | 
CC(=O)C=C(C)C [4-methylpent-3-en-2-one] | 34.0 spikes s^−1 | 
CC(C)CC(C)O (stereo not shown) [4-methylpentan-2-ol] | 24.0 spikes s^−1 | 
CC(=O)CCC(=O)O [4-oxopentanoic acid] | 4.5 spikes s^−1 | 
CC(=O)CCc1ccccc1 [4-phenylbutan-2-one] | 0.5 spikes s^−1 | 
CCCc1ccc(O)cc1 [4-propylphenol] | −9.0 spikes s^−1 | 
CCCc1ccncc1 [4-propylpyridine] | 34.0 spikes s^−1 | 
c1cnc2c(n1)CCCC2 [5,6,7,8-tetrahydroquinoxaline] | −5.5 spikes s^−1 | 
C=Cc1scnc1C [5-ethenyl-4-methyl-1,3-thiazole] | 50.5 spikes s^−1 | 
CC1=CCC(=O)O1 [5-methyl-3H-furan-2-one] | 56.0 spikes s^−1 | 
Cc1cc(O)cc(O)c1 [5-methylbenzene-1,3-diol] | 0.5 spikes s^−1 | 

Structure (SMILES) | Activation (spikes s^−1) | Activation (spikes s−1)
CC1CCC(=O)O1 (stereo not shown) [5-methyloxolan-2-one] | 10.0 spikes s^−1 | 
OCCCCCc1ccccc1 [5-phenylpentan-1-ol] | −3.0 spikes s^−1 | 
CCCCCCC1CCCC(=O)O1 (stereo not shown) [6-hexyloxan-2-one] | 1.5 spikes s^−1 | 
Cc1ccc2ncccc2c1 [6-methylquinoline] | 9.5 spikes s^−1 | 
CC(C)=CCC/C(C)=C/C(=O)O [(2E)-3,7-dimethylocta-2,6-dienoic acid] | 3.0 spikes s^−1 | 
CC(C)[C@H](N)C(=O)O [(2S)-2-amino-3-methylbutanoic acid] | 3.5 spikes s^−1 | 
O=C(O)[C@@H]1CCCN1 [(2S)-pyrrolidine-2-carboxylic acid] | 3.5 spikes s^−1 | 
C/C=C(\C)C(=O)O [(E)-2-methylbut-2-enoic acid] | 2.5 spikes s^−1 | 
C/C=C/C(=O)O [(E)-but-2-enoic acid] | −1.5 spikes s^−1 | 
CCC/C=C/CO [(E)-hex-2-en-1-ol] | 31.0 spikes s^−1 | 
CC/C=C/C=O [(E)-pent-2-enal] | −5.0 spikes s^−1 | 
CC/C=C\CCO [(Z)-hex-3-en-1-ol] | 2.5 spikes s^−1 | 
CCCCCC/C=C\CO [(Z)-non-2-en-1-ol] | −1.5 spikes s^−1 | 
CC/C=C\CCCCCO [(Z)-non-6-en-1-ol] | 2.0 spikes s^−1 | 
c1ccsc1 [Thiophene] | 116.6 spikes s^−1 | 
CC(C)=CCC/C(C)=C/COC=O [[(2E)-3,7-dimethylocta-2,6-dienyl] formate] | −2.5 spikes s^−1 | 
O=COC/C=C/c1ccccc1 [[(E)-3-phenylprop-2-enyl] formate] | 3.0 spikes s^−1 | 
CC(=O)CC(=O)OCc1ccccc1 [benzyl 3-oxobutanoate] | −1.5 spikes s^−1 | 
O=COCc1ccccc1 [benzyl formate] | 8.0 spikes s^−1 | 
CCC(C)O (stereo not shown) [butan-2-ol] |  | 63.8 spikes s−1
CC(S)C(C)S (stereo not shown) [butane-2,3-dithiol] | 25.0 spikes s^−1 | 
O=C1CCCC(=O)C1 [cyclohexane-1,3-dione] | 1.5 spikes s^−1 | 
OC1CCCCC1 [cyclohexanol] | 59.0 spikes s^−1 | 
C1CCCC1 [cyclopentane] |  | 41.8 spikes s−1
OC1CCCC1 [cyclopentanol] |  | 49.8 spikes s−1
OCC1CCCC1 [cyclopentylmethanol] | 47.5 spikes s^−1 | 

Structure (SMILES) | Activation (spikes s^−1) | Activation (spikes s−1)
COC(=O)OC [dimethyl carbonate] | 73.6 spikes s^−1 | 
C/C=C/C(=O)OCC [ethyl (E)-but-2-enoate] | 22.0 spikes s^−1 | 
CCOC(C)=O [ethyl acetate] | 62.4 spikes s^−1 | 
CCOC=O [ethyl formate] | 34.5 spikes s^−1 | 
O=Cc1ccoc1 [furan-3-carbaldehyde] | 85.0 spikes s^−1 | 
CCCC(O)CCC [heptan-4-ol] | −3.0 spikes s^−1 | 
C=CCCC(C)=O [hex-5-en-2-one] | 63.4 spikes s^−1 | 
COCc1ccccc1 [methoxymethylbenzene] | 12.0 spikes s^−1 | 
C=C(C)C(=O)OC [methyl 2-methylprop-2-enoate] | 45.0 spikes s^−1 | 
COC(=O)C(C)C [methyl 2-methylpropanoate] | 49.4 spikes s^−1 | 
COC(C)=O [methyl acetate] | −50.5 spikes s^−1 | 
CCCC(=O)OC [methyl butanoate] | 44.5 spikes s^−1 | 
COC=O [methyl formate] |  | 59.3 spikes s−1
CCC(=O)OC [methyl propanoate] | 75.0 spikes s^−1 | 
CC1CCCC1 [methylcyclopentane] |  | 16.3 spikes s−1
CSC [methylsulfanylmethane] |  | 99.3 spikes s−1
C=CC(CCCCC)OC(=O)CCC (stereo not shown) [oct-1-en-3-yl butanoate] | 0.0 spikes s^−1 | 
CC(=O)OCC1CCCO1 (stereo not shown) [oxolan-2-ylmethyl acetate] | 10.0 spikes s^−1 | 
CCCCCO [pentan-1-ol] | 50.5 spikes s^−1 | 
O=C1CNCCN1 [piperazin-2-one] | −3.2 spikes s^−1 | 
O=C1CCCCN1 [piperidin-2-one] | 0.0 spikes s^−1 | 
C=CCOC(=O)CCC [prop-2-enyl butanoate] | 16.0 spikes s^−1 | 
C=CCOC(=O)CC [prop-2-enyl propanoate] | 49.5 spikes s^−1 | 
CCCO [propan-1-ol] |  | 60.8 spikes s−1
